{"source": "patent US12077503B2", "about": "“Substituted cyclic amides and their use as herbicides” (FMC CORPORATION, priority 2015, dated 2024)", "type_in_all_cases": "in vivo", "key": {"[1]": {"system": "Kochia (Kochia scoparia)", "experiment": "Test A preemergence", "details": "Bassia scoparia, pre-emergence, 240 h, read-out: Plant response rating, Kochia", "in_short": "(§1)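 Visual injury scores from 0, no effect, to 100, complete control, were assigned versus untreated controls roughly 10 d after treatment in the greenhouse. Test chemicals, formulated with surfactant in a non-phytotoxic solvent, were applied to planted seeds as a preemergence soil spray or postemergence to one- to two-leaf plants 2 to 10 cm tall, in loam–sand soil.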"}, "[2]": {"system": "barnyardgrass (Echinochloa crus-galli)", "experiment": "Test A preemergence", "details": "Echinochloa crus-galli, pre-emergence, 240 h, read-out: Plant response rating, Barnyardgrass", "in_short": "as §1"}, "[3]": {"system": "giant foxtail (Setaria faberii)", "experiment": "Test A preemergence", "details": "Setaria faberi, pre-emergence, 240 h, read-out: Plant response rating, Foxtail, Giant", "in_short": "as §1"}, "[4]": {"system": "pigweed (Amaranthus retroflexus)", "experiment": "Test A preemergence", "details": "Amaranthus retroflexus, pre-emergence, 240 h, read-out: Plant response rating, Pigweed"}, "[5]": {"system": "ragweed (common ragweed, Ambrosia elatior)", "experiment": "Test A preemergence", "details": "Ambrosia artemisiifolia, pre-emergence, 240 h, read-out: Plant response rating, Ragweed", "in_short": "as §1"}, "[6]": {"system": "ryegrass, Italian (Italian ryegrass, Lolium multiflorum)", "experiment": "Test A preemergence", "details": "Lolium multiflorum, pre-emergence, 240 h, read-out: Plant response rating, Ryegrass, Italian", "in_short": "as §1"}, "[7]": {"system": "Galium (catchweed bedstraw, Galium aparine)", "experiment": "Test A postemergence", "details": "Galium, post-emergence, 240 h", "in_short": "as §1"}, "[8]": {"system": "Kochia (Kochia scoparia)", "experiment": "Test A postemergence", "details": "Bassia scoparia, post-emergence, 240 h", "in_short": "as §1"}, "[9]": {"system": "barnyardgrass (Echinochloa crus-galli)", "experiment": "Test A postemergence", "details": "Echinochloa crus-galli, post-emergence, 240 h", "in_short": "as §1"}, "[10]": {"system": "corn (Zea mays)", "experiment": "Test A postemergence", "details": "Zea mays, post-emergence, 240 h", "in_short": "as §1"}, "[11]": {"system": "giant foxtail (Setaria faberii)", "experiment": "Test A postemergence", "details": "Setaria faberi, post-emergence, 240 h", "in_short": "as §1"}, "[12]": {"system": "pigweed (Amaranthus retroflexus)", "experiment": "Test A postemergence", "details": "Amaranthus retroflexus, post-emergence, 240 h", "in_short": "as §1"}, "[13]": {"system": "ragweed (common ragweed, Ambrosia elatior)", "experiment": "Test A postemergence", "details": "Ambrosia artemisiifolia, post-emergence, 240 h", "in_short": "as §1"}, "[14]": {"system": "ryegrass, Italian (Italian ryegrass, Lolium multiflorum)", "experiment": "Test A postemergence", "details": "Lolium multiflorum, post-emergence, 240 h", "in_short": "as §1"}, "[15]": {"system": "wheat (Triticum aestivum)", "experiment": "Test A postemergence", "details": "Triticum aestivum, post-emergence, 240 h", "in_short": "as §1"}, "[16]": {"details": "125 g ai/ha, preemergence, visual rating after approx. 10 d, 0 to 100 scale where 0 is no effect and 100 is complete control"}, "[17]": {"details": "Preemergence, 31 g ai/ha, 0 to 100 scale (0 no effect, 100 complete control)"}}, "data": [{"smiles": "CN1C[C@H](c2ccc(C(F)F)cc2)[C@@H](C(=O)Nc2ccccc2F)C1=O", "note": "[Compound 803]", "values": [{"measurement": "pest or weed control at 125 g/ha", "setting": "[1]; [16]", "value": 70, "unit": "%"}, {"measurement": "pest or weed control at 31 g/ha", "setting": "[1]; [17]", "value": 50, "unit": "%"}, {"measurement": "pest or weed control at 125 g/ha", "setting": "[2]; [16]", "value": 90, "unit": "%"}, {"measurement": "pest or weed control at 31 g/ha", "setting": "[2]; [17]", "value": 70, "unit": "%"}, {"measurement": "pest or weed control at 125 g/ha", "setting": "[3]; [16]", "value": 90, "unit": "%"}, {"measurement": "pest or weed control at 31 g/ha", "setting": "[3]; [17]", "value": 90, "unit": "%"}, {"measurement": "pest or weed control at 125 g/ha", "setting": "[4]; [16]", "value": 60, "unit": "%"}, {"measurement": "pest or weed control at 31 g/ha", "setting": "[4]; [17]", "value": 40, "unit": "%"}, {"measurement": "pest or weed control at 125 g/ha", "setting": "[5]; [16]", "value": 60, "unit": "%"}, {"measurement": "pest or weed control at 31 g/ha", "setting": "[5]; [17]", "value": 30, "unit": "%"}, {"measurement": "pest or weed control at 125 g/ha", "setting": "[6]; [16]", "value": 0, "unit": "%"}, {"measurement": "pest or weed control at 31 g/ha", "setting": "[6]; [17]", "value": 0, "unit": "%"}, {"measurement": "pest or weed control at 125 g/ha", "setting": "[7]; 125 g ai/ha, postemergence, visual injury rating after approximately 10 d, read-out: Galium plant response rating (0 to 100 scale, 0 no effect, 100 complete control)", "value": 60, "unit": "%"}, {"measurement": "pest or weed control at 31 g/ha", "setting": "[7]; Postemergence, 31 g ai/ha, visual injury after approx. 10 d, 0 to 100 scale, 0 no effect, 100 complete control, read-out: Plant response rating, Galium", "value": 30, "unit": "%"}, {"measurement": "pest or weed control at 125 g/ha", "setting": "[8]; 125 g ai/ha, postemergence, visual injury rating after approximately 10 d, read-out: Kochia plant response rating (0 to 100 scale, 0 no effect, 100 complete control)", "value": 70, "unit": "%"}, {"measurement": "pest or weed control at 31 g/ha", "setting": "[8]; Postemergence, 31 g ai/ha, visual injury after approx. 10 d, 0 to 100 scale, 0 no effect, 100 complete control, read-out: Plant response rating, Kochia", "value": 50, "unit": "%"}, {"measurement": "pest or weed control at 125 g/ha", "setting": "[9]; 125 g ai/ha, postemergence, visual injury rating after approximately 10 d, read-out: Barnyardgrass plant response rating (0 to 100 scale, 0 no effect, 100 complete control)", "value": 80, "unit": "%"}, {"measurement": "pest or weed control at 31 g/ha", "setting": "[9]; Postemergence, 31 g ai/ha, visual injury after approx. 10 d, 0 to 100 scale, 0 no effect, 100 complete control, read-out: Plant response rating, Barnyardgrass", "value": 80, "unit": "%"}, {"measurement": "plant injury at 125 g/ha", "setting": "[10]; 125 g ai/ha, postemergence, visual injury rating after approximately 10 d, read-out: Corn plant response rating (0 to 100 scale, 0 no effect, 100 complete control)", "value": 90, "unit": "%"}, {"measurement": "Corn plant response rating (crop injury, 0 = no effect, 100 = complete kill) at 31 g/ha", "setting": "[10]; Postemergence, 31 g ai/ha, visual injury after approx. 10 d, 0 to 100 scale, 0 no effect, 100 complete control", "value": 20, "unit": "%"}, {"measurement": "pest or weed control at 125 g/ha", "setting": "[11]; 125 g ai/ha, postemergence, visual injury rating after approximately 10 d, read-out: Foxtail, Giant plant response rating (0 to 100 scale, 0 no effect, 100 complete control)", "value": 90, "unit": "%"}, {"measurement": "pest or weed control at 31 g/ha", "setting": "[11]; Postemergence, 31 g ai/ha, visual injury after approx. 10 d, 0 to 100 scale, 0 no effect, 100 complete control, read-out: Plant response rating, Foxtail, Giant", "value": 90, "unit": "%"}, {"measurement": "pest or weed control at 125 g/ha", "setting": "[12]; 125 g ai/ha, postemergence, visual injury rating after approximately 10 d, read-out: Pigweed plant response rating (0 to 100 scale, 0 no effect, 100 complete control)", "value": 40, "unit": "%"}, {"measurement": "pest or weed control at 31 g/ha", "setting": "[12]; Postemergence, 31 g ai/ha, visual injury after approx. 10 d, 0 to 100 scale, 0 no effect, 100 complete control, read-out: Plant response rating, Pigweed", "value": 30, "unit": "%"}, {"measurement": "pest or weed control at 125 g/ha", "setting": "[13]; 125 g ai/ha, postemergence, visual injury rating after approximately 10 d, read-out: Ragweed plant response rating (0 to 100 scale, 0 no effect, 100 complete control)", "value": 30, "unit": "%"}, {"measurement": "pest or weed control at 31 g/ha", "setting": "[13]; Postemergence, 31 g ai/ha, visual injury after approx. 10 d, 0 to 100 scale, 0 no effect, 100 complete control, read-out: Plant response rating, Ragweed", "value": 30, "unit": "%"}, {"measurement": "pest or weed control at 125 g/ha", "setting": "[14]; 125 g ai/ha, postemergence, visual injury rating after approximately 10 d, read-out: Ryegrass, Italian plant response rating (0 to 100 scale, 0 no effect, 100 complete control)", "value": 40, "unit": "%"}, {"measurement": "pest or weed control at 31 g/ha", "setting": "[14]; Postemergence, 31 g ai/ha, visual injury after approx. 10 d, 0 to 100 scale, 0 no effect, 100 complete control, read-out: Plant response rating, Ryegrass, Italian", "value": 0, "unit": "%"}, {"measurement": "plant injury at 125 g/ha", "setting": "[15]; 125 g ai/ha, postemergence, visual injury rating after approximately 10 d, read-out: Wheat plant response rating (0 to 100 scale, 0 no effect, 100 complete control)", "value": 40, "unit": "%"}, {"measurement": "plant injury at 31 g/ha", "setting": "[15]; Postemergence, 31 g ai/ha, visual injury after approx. 10 d, 0 to 100 scale, 0 no effect, 100 complete control, read-out: Plant response rating, Wheat", "value": 0, "unit": "%"}]}]}
